Series [1] concerns CT26 cells. Put plainly: Apoptosis and necrosis of CT26 cells (Annexin V/PI flow cytometry). Type of series: cell-based. The following applies: CT26, visible light. On the procedure: The degrees of apoptosis and necrosis of cancer cells were quantitatively analyzed to accurately evaluate the anticancer effect of the self-assembled nanoparticles (LT-NPs). First, CT26 cells treated with doxorubicin (DOX), verteporfin (VPF), a mixture of doxorubicin and verteporfin (VPF+DOX) or the self-assembled nanoparticles (LT-NPs) and a laser were prepared as above and treated with 5 μg of Annexin V-FITC and 10 μg of PI solution for 10 min. Then, cells were cultured with a cell fixative for 10 min and further cultured with DAPI for 20 min. The degrees of apoptosis and necrosis were quantitatively analyzed using a flow cytometer (BD FACSVerse, BD bioscience, USA).
Background: In flow cytometry, cells or beads pass a laser one at a time.

Series [2] has as its system CT26 cells. Put plainly: Immunogenic cell death: extracellular ATP release. The format is cell-based. Conditions: CT26, 5 μM, 24 h, +L/−L. How it is done:
(§1) First, CT26 cells were plated in 35 mm cell culture dishes at a density of 1×10^5 cells/dish and doxorubicin (DOX) (5 μM), verteporfin (VPF) (5 μM) or the self-assembled nanoparticles (LT-NPs) (5 μM) were added to each dish. After 24-h culture, one half was exposed by irradiation with visible light using a 671 nm laser at 40 mW for 250 sec (+L) and the other half was not irradiated with visible light for comparison (−L). The immunogenic cell death of the self-assembled nanoparticles (LT-NPs) was evaluated using the cells and the cell culture media.
ATP was analyzed using a commercially available ATP assay kit (Beyotime Biotechnology) according to the manufacturer's protocol.

In series [3] the test system is CT26 cells. In words: Immunogenic cell death: extracellular HSP70 and HMGB1 (Western blotting). Type of series: cell-based. Conditions: CT26, 5 μM, 24 h, +L/−L. How it is done: as §1
Before staining the cells with APC-conjugated CRT antibody, culture media were separated from the cells and the extracellular expression levels of HMGB1 and HSP70 were analyzed by Western blotting.
Each cell culture medium was treated with RIPA buffer (Cell Signaling Technology) at 4° C. for 30 min and the protein amount of the lysate was analyzed using a Pierce BCA protein assay kit (Thermo Fisher Scientific) according to the manufacturer's protocol. After SDS-PAGE, proteins were transferred to a PVDF membrane (Bio-Rad), which was then treated with Tris-buffered saline (TBS-T) containing 5% skim milk and 0.1% Tween-20. The membrane was incubated with primary antibodies at 4° C. overnight. HSP70 and HMGB1 antibodies were used as the primary antibodies. The membrane was washed with TBS-T and incubated with a secondary antibody at room temperature for 1 h. The membrane was washed with TBS-T, treated with EZ-Western Lumi Pico or Femto reagent (DoGen), and analyzed using Fusion-Solo software (Vilber) according to the manufacturer's protocol to determine band intensities.

Series [4] concerns CT26 cells. Put plainly: Immunogenic cell death: calreticulin expression. The format is cell-based. Conditions: CT26, 5 μM, 24 h, +L/−L. On the procedure:
as §1
Cells were stained with APC-conjugated CRT antibody for 12 h and observed with a confocal fluorescence microscope.

Series [5] in a line: Morphological analysis by transmission electron microscopy in saline. The format is physicochemical. The following applies: 1 mg in 1 mL physiological saline. How it is done:
The self-assembled nanoparticles (LT-NPs) prepared in Example 1, doxorubicin (DOX), and verteporfin (VPF) were used as samples. 1 mg of each sample was mixed with physiological saline (1 mL). […] The self-assembled nanoparticles (LT-NPs) were mixed with cathepsin B (Cat-B) protease (50 μg/mL). The mixture was allowed to react for 24 h.

Take verteporfin: in the series on CT26 cells [1], the “degree of apoptosis (and necrosis)” value was “considerable apoptosis and necrosis”; the “proportions of early apoptosis, late apoptosis and necrosis” value was “increase the proportion of late apoptosis”. In addition, in the series on CT26 cells [2], the ATP release result is “relatively increased”. For the same compound, in the series on CT26 cells [3], the HMGB-1 release result is given as “relatively increased” and the HSP70 release result is on record as “relatively increased”. The calreticulin expression result in the series on CT26 cells [4] is reported as “relatively increased”. Also, in series [5], the “morphology in physiological saline (TEM)” value is recorded as “aggregated”.
Take `COc1cccc2c1C(=O)c1c(O)c3c(c(O)c1C2=O)C[C@@](O)(C(=O)CO)C[C@@H]3O[C@H]1C[C@H](N)[C@H](O)[C@H](C)O1` [doxorubicin]: in the series with CT26 cells [1], the “degree of apoptosis (and necrosis)” value is on record as “very little apoptosis”. The ATP release result with CT26 cells [2] is “lowest”. In addition, in the series with CT26 cells [3], the HMGB-1 release entry is given as “lowest” and the HSP70 release entry is “lowest”. Besides, the calreticulin expression result in the series with CT26 cells [4] is “lowest”. Also, the “morphology in physiological saline (TEM)” value in series [5] was “aggregated”.

(Values after patent US11833204B2, “Visible light-activatable nanoparticles for cancer immunotherapy and use thereof” (KOREA INSTITUTE OF SCIENCE AND TECHNOLOGY, priority 2021, dated 2023).)
